Results: publication PMC5050167 (Bioorganic & medicinal chemistry letters, 2016)

Columns and labels:
T antigen [1] = target: T1, T antigen (Simian virus 40, UniProt P03070); assay: ATPase activity of purified T antigen; type: biochemical, polyomavirus; details: for Fold change in ATPase activity of T antigen: compound 10 μM, purified T antigen, normalized to DMSO, mean of 3 experiments
T antigen [2] = target: T1, T antigen; details: cited from earlier work
human Hsp70 = human Hsp70 (Homo sapiens, UniProt P0DMV8); assay: Endogenous Hsp70 ATPase activity; type: biochemical
human Hsp70, sequence (P0DMV8 whole entry): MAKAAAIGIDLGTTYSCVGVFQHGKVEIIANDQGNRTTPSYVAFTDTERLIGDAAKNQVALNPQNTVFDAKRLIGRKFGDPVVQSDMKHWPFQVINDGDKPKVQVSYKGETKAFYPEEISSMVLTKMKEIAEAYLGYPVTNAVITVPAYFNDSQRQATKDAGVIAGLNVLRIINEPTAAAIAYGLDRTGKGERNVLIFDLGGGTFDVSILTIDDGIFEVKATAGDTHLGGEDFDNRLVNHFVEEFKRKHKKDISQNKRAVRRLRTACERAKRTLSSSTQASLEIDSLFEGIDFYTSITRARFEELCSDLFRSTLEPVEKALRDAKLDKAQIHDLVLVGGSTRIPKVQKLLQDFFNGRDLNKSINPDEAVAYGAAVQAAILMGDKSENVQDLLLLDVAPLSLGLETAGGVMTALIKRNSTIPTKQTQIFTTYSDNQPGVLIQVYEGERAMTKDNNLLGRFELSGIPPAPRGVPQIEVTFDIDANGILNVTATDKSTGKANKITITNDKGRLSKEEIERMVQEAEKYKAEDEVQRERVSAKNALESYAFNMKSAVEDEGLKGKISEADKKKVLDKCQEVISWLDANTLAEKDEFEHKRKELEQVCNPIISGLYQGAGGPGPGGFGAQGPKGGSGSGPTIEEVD

RMS13 and MCF7 cells = assay: Growth inhibition of the two cancer lines; type: cell-based; details: Homo sapiens, read-out: GI50 across the two cancer lines
Hsp70 + Hdj2 = Hsp70 + Hdj2 (Homo sapiens, UniProt P0DMV8); assay: Hsp40; type: biochemical; details: carboxylic acid in place of tetrazole
Hsp70 + Hdj2, sequence (P0DMV8 whole entry): as above

[3] = system: human foreskin fibroblasts; assay: Cytotoxicity in human foreskin fibroblasts; type: cell-based; details: in words
JC Virus = assay: JC virus replication in COS7 cells; type: cell-based; details: comparison with cidofovir

T1 sequence (P03070 whole entry): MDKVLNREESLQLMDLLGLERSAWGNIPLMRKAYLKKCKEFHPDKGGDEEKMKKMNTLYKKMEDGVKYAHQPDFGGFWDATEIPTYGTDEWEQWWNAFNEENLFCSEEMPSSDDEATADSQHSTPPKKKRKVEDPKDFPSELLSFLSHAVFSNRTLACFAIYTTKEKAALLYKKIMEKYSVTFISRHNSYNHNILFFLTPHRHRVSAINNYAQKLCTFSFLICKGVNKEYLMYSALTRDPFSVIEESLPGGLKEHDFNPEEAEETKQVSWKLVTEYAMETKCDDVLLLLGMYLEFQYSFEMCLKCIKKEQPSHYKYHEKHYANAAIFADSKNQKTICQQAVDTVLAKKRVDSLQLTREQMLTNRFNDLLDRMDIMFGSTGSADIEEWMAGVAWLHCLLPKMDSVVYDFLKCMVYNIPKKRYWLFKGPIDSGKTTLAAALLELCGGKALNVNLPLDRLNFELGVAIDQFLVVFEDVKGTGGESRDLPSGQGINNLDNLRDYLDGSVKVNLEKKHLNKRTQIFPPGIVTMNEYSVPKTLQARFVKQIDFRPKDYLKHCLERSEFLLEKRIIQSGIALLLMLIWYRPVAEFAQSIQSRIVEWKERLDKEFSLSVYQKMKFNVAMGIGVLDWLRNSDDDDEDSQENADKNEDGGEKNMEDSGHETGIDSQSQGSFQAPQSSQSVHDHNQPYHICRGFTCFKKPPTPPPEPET

CC1=C(C(=O)OCc2ccccc2)C(c2ccc(-c3ccccc3C)cc2)NC(=O)N1Cc1ccc(-c2nnn[nH]2)cc1 (centres unmarked) [SMAL]
Effect on T antigen ATPase activity, in words (T antigen [1]; final concentration 10 μM): significantly reduced the ATPase activity of T antigen
IC50 (T antigen [2]; read-out: IC50 T antigen ATPase activity): 5 µM
EC50 (T antigen [2]; read-out: reported EC50 (T antigen ATPase)): ~5 µM
Effect on endogenous Hsp70 ATPase activity, in words (human Hsp70): modestly inhibited

CCCCCCN(C(=O)CCCCCN1C(=O)NC(c2ccc(-c3ccccc3)cc2)C(C(=O)OCc2ccccc2)=C1C)C(C(=O)NCCCC)c1ccc(OCC(=O)OC)c(C(=O)OC)c1 (centres unmarked) [MAL3-101]
GI50 (RMS13 and MCF7 cells): 6 to 13 µM

CC1=C(C(=O)OCc2ccccc2)C(c2ccc(-c3ccccc3)cc2)NC(=O)N1Cc1ccc(-c2nnn[nH]2)cc1 (centres unmarked) [ML282-56]
Fold change in ATPase activity of T antigen (T antigen [1]): −2.0 fold

CC1=C(C(=O)OCc2ccccc2)C(c2ccc(-c3ccccc3)cc2)NC(=S)N1Cc1ccc(-c2nnn[nH]2)cc1 (centres unmarked) [AMT551-078]
Fold change in ATPase activity of T antigen (T antigen [1]): −5.5 fold

CC1=C(C(=O)OCc2ccccc2)C(c2ccc(-c3ccccc3)cc2)N(CCCCCC(=O)O)C(=S)N1 (centres unmarked) [AMT551-071]
Fold change in ATPase activity of T antigen (T antigen [1]): −1.6 fold

CC1=C(C(=O)OCc2ccccc2)C(c2ccc(-c3ccccc3)cc2)NC(=S)N1CCCCCC(=O)O (centres unmarked) [AMT551-090]
Effect on Hsp40-dependent activation of Hsp70, in words (Hsp70 + Hdj2): either lacked inhibitory activity or modesty stimulated
Fold change in ATPase activity of T antigen (T antigen [1]): −1.5 fold

CC1=C(C(=O)OCc2ccccc2)C(c2ccc(-c3ccccc3)cc2)NC(=O)N1CCCCCc1nnn[nH]1 (centres unmarked) [BQU015242]
Fold change in ATPase activity of T antigen (T antigen [1]): −1.4 fold
Effect on endogenous Hsp70 ATPase activity, in words (human Hsp70): modestly inhibited

CC1=C(C(=O)OCc2ccccc2)C(c2ccc(-c3ccccc3C)cc2)NC(=O)N1CCCCCc1nnn[nH]1 (centres unmarked) [LR340-006]
Fold change in ATPase activity of T antigen (T antigen [1]): −2.1 fold

CC1=C(C(=O)OCc2ccccc2)C(c2ccc(-c3ccccc3C)cc2)NC(=S)N1CCCCCc1nnn[nH]1 (centres unmarked) [AMT580-033]
Fold change in ATPase activity of T antigen (T antigen [1]): −4.7 fold

CC1=C(C(=O)OCc2ccccc2)C(c2ccc(-c3ccccc3C)cc2)N(Cc2ccc(-c3nnn[nH]3)cc2)C(=S)N1 (centres unmarked) [AMT551-058]
Fold change in ATPase activity of T antigen (T antigen [1]): −7.5 fold

CC1=C(C(=O)OCc2ccccc2)C(c2ccc(-c3ccccc3C)cc2)NC(=S)N1Cc1ccc(-c2nnn[nH]2)cc1 (centres unmarked) [AMT551-093]
Fold change in ATPase activity of T antigen (T antigen [1]): −7.7 fold

CC1=C(C(=O)OCc2ccccc2)C(c2ccc(-c3ccccc3)cc2)NC(=O)N1CCCCCC(=O)O (centres unmarked) [MAL2-11B]
Effect on Hsp40-dependent activation of Hsp70, in words (Hsp70 + Hdj2): either lacked inhibitory activity or modesty stimulated
Fold change in ATPase activity of T antigen (T antigen [1]): −1.5 fold

CC1=C(C(=O)OCc2ccccc2)C(c2ccc(-c3ccccc3)cc2)NC(=S)N1CCCCCc1nnn[nH]1 (centres unmarked) [AMT580-027]
Fold change in ATPase activity of T antigen (T antigen [1]): −2.1 fold

Nc1ccn(C[C@@H](CO)OCP(=O)(O)O)c(=O)n1.O.O [Cidofovir]
Toxicity relative to the dihydropyrimidines [3]: significantly less toxic than the dihydropyrimidines

CC1=C(C(=O)OCc2ccccc2)C(c2ccc(-c3ccccc3)cc2)N(Cc2ccc(-c3nnn[nH]3)cc2)C(=S)N1 (centres unmarked) [AMT580-043]
Inhibition of polyomavirus replication in cell culture, in words (JC Virus): more potently than an existing drug, cidofovir
Fold change in ATPase activity of T antigen (T antigen [1]): −4.5 fold

CC1=C(C(=O)OCc2ccccc2)C(c2ccc(-c3ccccc3)cc2)N(Cc2ccc(-c3nnn[nH]3)cc2)C(=O)N1 (centres unmarked) [AMT628-003]
Fold change in ATPase activity of T antigen (T antigen [1]): −2.3 fold
